Measurements from patent US20090022684A1, “Methods for hematopoietic stimulation” (priority 2006, published 2009).
Positions of bridges follow the written chain, without caps; N, C: chain ends. Residues, ends and D or L forms follow the SMILES beside them.

Tests used:
[1] = test system: male mice of the C57BL/6 strain; experiment: In vivo mouse study: white blood cell, neutrophil and lymphocyte populations after 14 days of subcutaneous dosing; conditions: for Lymphocytes / Neutrophils / White Blood Cells: Day 14 blood, s.c. over 14 days, peptide 80 μg/kg once daily, G-CSF 10 μg/kg once daily, EPO 600 IU/kg Days 1, 4, 7, 10, 14, group mean; for increase in neutrophil population compared to mice in the control group / increase in the white blood cell population compared to mice in the control group: Day 14, vs control group without any treatment
Description: In vivo Test System. Mouse was selected as the in vivo test system. Sufficient male mice of the C57BL/6 strain was obtained. The animals was obtained as weanlings of about 24-27 days of age on arrival. At randomization, their body weights were within ±20% of the overall mean for each sex. The health care and welfare of the mice were maintained in accordance with the requirement of the Animals (Scientific Procedures) Act 1986 UK. All animals were given clinical inspection for ill health on arrival. They were acclimatized for about three weeks and a veterinary inspection was performed before the start of dosing to ensure their suitability for study. The mice were assigned to treatment groups during the acclimatization period using a total randomization procedure. Group mean body weights were calculated and inspected to ensure there were no unacceptable difference between groups.
Preparation of Administered Formulation of [Leu^27]cyclo(Glu^22-Lys^26)-hPTH-(1-31)-NH2. The bulk freeze-dried peptide [Leu^27]cyclo(Glu^22-Lys^26)-hPTH-(1-31)-NH2 (SEQ ID NO: 4) was dissolved in 0.01 M acetic acid. The concentration of peptide in the solution was 1 μg/μL. The solution was re-aliquotted into dosing vials and kept frozen at approximately −70° C. The vials were then freeze-dried at the temperature lower than −20° C. and stored frozen until required. The freeze-dried aliquots for injection was reconstituted daily. The peptide was dissolved in an appropriate volume of purified water to an approximate concentration of 2-3 mg/mL. The phosphate-buffered saline (pH=7.4) was added to give the final required concentration and the pH value of the final solution is approximately 7.2. The capped vials were mixed thoroughly to ensure peptide was fully dissolved prior to use. Aseptic techniques and glass vials were used throughout dose preparation.
Preparation of Administered Formulation of G-CSF. G-CSF was provided at a concentration of 300 μg/mL in sorbito, sodium acetate and polysorbate 80 in water for injection. The stock solution was diluted accordingly with water for injection to provide the correct dosing concentration.
Preparation of Administered Formulation of EPO. EPO was provided at a concentration of 40,000 IU/mL in polysorbate 80, sodium chloride, sodium dihydrogen phosphate dihydrate, disodium phosphate dihydrate, glycine and water for injection. The stock solution was diluted accordingly with phosphate buffered solution to provide the correct dosing concentration.
In vivo Mouse Study. The peptide [Leu^27]cyclo(Glu^22-Lys^26)-hPTH-(1-31 )-NH2 (SEQ ID NO: 4), G-CSF or EPO were administered subcutaneously over 14 days. The mice were dosed as follows:
The peptide [Leu^27]cyclo(Glu^22-Lys^2 1)-hPTH-(1-3 I)-NH2 was administered to all mice in Groups 2, 3, 4 and 5 once daily for fourteen days at a dose level of 80 μg/kg.
Mice in Group 3, 4 and 5 also received EPO and/or G-CSF. EPO was administered on Days 1, 4, 7, 10 and 14 at a dose of 600 IU/kg. G-CSF was administered once daily for fourteen days at a dose level of 10 μg/kg.
Mice in 6, 7, 8 received EPO and/or G-CSF. EPO was administered on Days 1, 4, 7, 10 and 14 at a dose level of 600 IU/kg. G-CSF was administered once daily for fourteen days at a dose level of 10 μg/kg.
On Day 14, blood samples (0.5 mL EDTA nominal, 0.6 mL lithium heparin nominal) were withdrawn from all mice and were collected into lithium heparin tubes. The tubes were centrifuged and the plasma were separated and analyzed.

healthy older volunteers = experiment: Phase I clinical trial: changes in blood cell populations from baseline to Day 7; assay type: in vivo, human; conditions: for effect on white blood cell population, especially neutrophil population: healthy adults, compared to placebo
Experimental: A Phase I, single-center, randomized double blind, placebo-controlled, multiple-escalating-dose study in healthy older volunteers was carried out for the peptide [Leu^27]cyclo(Glu^22-Lys^2 1)-hPTH-(1-31)-NH2 (SEQ ID NO: 4). Subjects were healthy males and females (non-reproductive potential), aged 40 to 65 years. […] Subcutaneous injections of placebo or the peptide with a dosage of 10 μg, 20 μg, 40 μg, 60 μg, or 80 μg was administered daily for 7 days. For each dosage level, 2 subjects (I male and I female) received placebo and 6 subjects (3 males and 3 females) received the peptide daily.
The number of white blood cells and the number neutrophils in a subject treated with the peptide increase as the dosage increases until it reaches the maximum at the dosage level of 60 μg. Increase in the number of white blood cells in subject treated with 60 μg of [Leu^27]cyclo(Glu^22-Lys^26)-hPTH-(1-31)-NH2 at Day 7 from the baseline level was about 8 times of that in subjects treated with placebo.

Molecule: EPO: erythropoietin, an erythropoiesis regulator
- Lymphocytes [1]: 3.5 ± 1.12 1000/cmm
- Neutrophils [1]: 0.5 ± 0.49 1000/cmm
- White Blood Cells [1]: 4.3 ± 1.56 1000/cmm

Molecule: CC[C@H](C)[C@H](NC(=O)[C@H](CCC(=O)O)NC(=O)[C@H](CO)NC(=O)[C@@H](NC(=O)[C@@H](N)CO)C(C)C)C(=O)N[C@@H](CCC(N)=O)C(=O)N[C@@H](CC(C)C)C(=O)N[C@@H](CCSC)C(=O)N[C@@H](Cc1c[nH]cn1)C(=O)N[C@@H](CC(N)=O)C(=O)N[C@@H](CC(C)C)C(=O)NCC(=O)N[C@@H](CCCCN)C(=O)N[C@@H](Cc1c[nH]cn1)C(=O)N[C@@H](CC(C)C)C(=O)N[C@@H](CC(N)=O)C(=O)N[C@@H](CO)C(=O)N[C@@H](CCSC)C(=O)N[C@@H](CCC(=O)O)C(=O)N[C@@H](CCCNC(=N)N)C(=O)N[C@H](C(=O)N[C@H]1CCC(=O)NCCCC[C@@H](C(=O)N[C@@H](CC(C)C)C(=O)N[C@@H](CC(C)C)C(=O)N[C@@H](CCC(N)=O)C(=O)N[C@@H](CC(=O)O)C(=O)N[C@H](C(N)=O)C(C)C)NC(=O)[C@H](CCCNC(=N)N)NC(=O)[C@H](CC(C)C)NC(=O)[C@H](Cc2c[nH]c3ccccc23)NC1=O)C(C)C [[Leu^27]cyclo(Glu^22-Lys^26)-hPTH-(1-31)-NH2] (H-SVSEIQLMHNLGKHLNSMERVEWLRKLLQDV-NH2; lactam 22-26; N-terminus assumed)
- Neutrophil, change in mean from baseline to Day 7 (healthy older volunteers; 10 μg s.c. daily for 7 days): 1.22 x e^9/L
- Platelet, change in mean from baseline to Day 7 (healthy older volunteers; 10 μg s.c. daily for 7 days): 19.80 x e^9/L
- Relative Neutrophil Count, change in mean from baseline to Day 7 (healthy older volunteers; 10 μg s.c. daily for 7 days): 4%
- White Blood Cells, change in mean from baseline to Day 7 (healthy older volunteers; 10 μg s.c. daily for 7 days): 1.50 x e^9/L
- Neutrophil, change in mean from baseline to Day 7 (healthy older volunteers; 20 μg s.c. daily for 7 days): 1.22 x e^9/L
- Platelet, change in mean from baseline to Day 7 (healthy older volunteers; 20 μg s.c. daily for 7 days): 16.83 x e^9/L
- Relative Neutrophil Count, change in mean from baseline to Day 7 (healthy older volunteers; 20 μg s.c. daily for 7 days): 3%
- White Blood Cells, change in mean from baseline to Day 7 (healthy older volunteers; 20 μg s.c. daily for 7 days): 1.75 x e^9/L
- Neutrophil, change in mean from baseline to Day 7 (healthy older volunteers; 40 μg s.c. daily for 7 days): 2.88 x e^9/L
- Platelet, change in mean from baseline to Day 7 (healthy older volunteers; 40 μg s.c. daily for 7 days): 28.50 x e^9/L
- Relative Neutrophil Count, change in mean from baseline to Day 7 (healthy older volunteers; 40 μg s.c. daily for 7 days): 12%
- White Blood Cells, change in mean from baseline to Day 7 (healthy older volunteers; 40 μg s.c. daily for 7 days): 3.23 x e^9/L
- Increase in the number of white blood cells at Day 7 from baseline relative to that in subjects treated with placebo (healthy older volunteers; 60 μg s.c. daily for 7 days): about 8 times
- Neutrophil, change in mean from baseline to Day 7 (healthy older volunteers; 60 μg s.c. daily for 7 days): 4.53 x e^9/L
- Platelet, change in mean from baseline to Day 7 (healthy older volunteers; 60 μg s.c. daily for 7 days): 47.83 x e^9/L
- Relative Neutrophil Count, change in mean from baseline to Day 7 (healthy older volunteers; 60 μg s.c. daily for 7 days): 16%
- White Blood Cells, change in mean from baseline to Day 7 (healthy older volunteers; 60 μg s.c. daily for 7 days): 4.65 x e^9/L
- Neutrophil, change in mean from baseline to Day 7 (healthy older volunteers; 80 μg s.c. daily for 7 days): 4.40 x e^9/L
- Platelet, change in mean from baseline to Day 7 (healthy older volunteers; 80 μg s.c. daily for 7 days): 39.50 x e^9/L
- Relative Neutrophil Count, change in mean from baseline to Day 7 (healthy older volunteers; 80 μg s.c. daily for 7 days): 17%
- White Blood Cells, change in mean from baseline to Day 7 (healthy older volunteers; 80 μg s.c. daily for 7 days): 4.40 x e^9/L
- increase in population of neutrophils at Day 7 relative to that for subjects treated with placebo (healthy older volunteers; Day 7, s.c. daily for 7 days): about 50 fold
- platelet count (healthy older volunteers; dosage level of 60 μg and 80 μg, s.c. daily for 7 days): Significant increase
- effect on white blood cell population, especially neutrophil population (healthy older volunteers; s.c. daily for 7 days): significant stimulating effect
- effect on white blood cell population, especially neutrophil population (healthy older volunteers; s.c. daily for 7 days, listed as cyclic peptide of SEQ ID NO: 4): significant increase
- increase in lymphocyte population ([1]; Day 14, vs control group): ~20%
- increase in neutrophil population compared to mice in the control group [1]: ~75%
- increase in the white blood cell population compared to mice in the control group [1]: ~26%
- Lymphocytes [1]: 3.7 ± 1.92 1000/cmm
- Neutrophils [1]: 0.7 ± 0.35 1000/cmm
- White Blood Cells [1]: 4.8 ± 2.13 1000/cmm

B1: G-CSF: granulocyte colony-stimulating factor, a hematopoietic growth factor (protein, UniProt P09919 31-207, looked up)
Granulocyte …: TPLGPASSLPQSFLLKCLEQVRKIQGDGAALQEKLVSECATYKLCHPEELVLLGHSLGIPWAPLSSCPSQALQLAGCLSQLHSGLFLYQGLLQALEGISPELGPTLDTLQLDVADFATTIWQQMEELGMAPALQPTQGAMPAFASAFQRRAGGVLVASHLQSFLEVSYRVLRHLAQP
- increase in neutrophil population compared to mice in the control group [1]: ~175%
- increase in the white blood cell population compared to mice in the control group [1]: ~20%
- Lymphocytes [1]: 3.0 ± 1.30 1000/cmm
- Neutrophils [1]: 1.1 ± 0.25 1000/cmm
- White Blood Cells [1]: 4.5 ± 1.36 1000/cmm
